{"source": "patent US20240424115A1", "about": "“LONG-ACTING INTERLEUKIN-15 RECEPTOR AGONISTS AND RELATED IMMUNOTHERAPEUTIC COMPOSITIONS AND METHODS” (Nektar Therapeutics, priority 2017, published 2024)", "key": {"human PBMCs": {"tested_on": "human PBMCs", "test": "HuPBMC-pStat5 assay (flow cytometry, lymphocyte subpopulations)", "type": "cell-based", "description": "The potency of IL-15 or long acting IL-15 R agonists on various human lymphocyte subpopulations was determined by phospho-STAT5 (Y694) dose response assay. Frozen human PBMCs from multiple donors were supplied by AllCells. 1×10^6 cells/100ul were cultured in complete RPMI media for 2 hours and then incubated with the indicated concentrations (10,000ng/ml-0.001ng/ml serial dilutions) of IL-15 or conjugates for 20minutes at 37c. The cells were then fixed (using BD Cytofix) and permeabilized (using 100% pre-chilled methanol) and stained with antibodies for CD3, CD4, CD8, CD4-Tregs (CD4+CD25+Foxp3+), CD56 and phosphorylated STAT5 (Y694) before analysis by flow cytometry. Concentration-response relationships were used to calculate the EC50 values.\nAssessment of in-vitro activity of exemplary long-acting IL-15 receptor agonists (e.g., Conjugates 1, 3 and 5) was carried out by investigating signaling in NK cell subsets of human PBMCs as shown in FIGS. 10A (CD56bright cells) and 10B (CD56dim cells). STAT5 phosphorylation was evaluated as previously described for assessing IL-15 signaling activity of the long acting IL-15 receptor agonists.\nA second study was conducted to investigate/compare the pStat5 response of human PBMCs obtained from two donors (CD3, CD4, CD8, CD56 (bright and dim) and CD4-Tregs (CD25+Foxp3+)) to IL-15, Conjugate 1 and Conjugate 5. An […] dose response was examined using a 10-fold dilution with a dose range of 0.001-10000 ng/ml and a 20 min stimulation. Each of the test articles was diluted in IL-15 buffer+0.1% BSA.\nAssessment of in vitro activity of Conjugate 1 was carried out by investigating NK and CD8 JAK/STAT signaling after treatment of human PBMCs with IL-15 or Conjugate 1 at a dose range of 0.001-10000 ng/ml. STAT5 phosphorylation was assessed as previously described."}, "CTLL-2 cells": {"tested_on": "CTLL-2 cells", "test": "Potency assay based on STAT5 phosphorylation in CTLL-2 cells", "type": "cell-based, murine", "description": "In the phospho-STAT5 assay following receptor binding, downstream cell signaling can then activate Signal Transducer and Activator of Transcription 5 (STAT5) through phosphorylation to promote gene expression to induce cell proliferation. The activation of phosho-STAT5 is measured in CTLL-2 cells, a murine T lymphocyte cell line, using the phospho-STAT5/total STAT5 multiplexed assay (Meso Scale Discovery, MD) in response to sample and reference treatment for ˜10 minutes.\nOne day prior to the assay, CTLL-2 cells were split into fresh growth medium [RPMI 1640 supplemented with 10% FBS, 10% T-cell culture supplement (catalog #354115, Corning, Inc., Tewksbury, MA), 2 mM L-glutamate, and 1 mM sodium pyruvate]. On the day of assay, cells were pre-incubated in assay medium (RPMI 1640 supplemented with 1% FBS, 2 mM L-glutamate, and 1 mM sodium pyruvate) for at least four hours, and then plated in assay medium in a 96-well plate at 50,000 cells/well. Dilutions of the test article were prepared in an appropriate buffer immediately prior to assay. Stimulation of CTLL-2 cells was initiated by the transfer of 25X test article solutions to triplicate wells containing CTLL-2 cells. Plates were incubated at 37° C., 5% CO2 for 10 minutes, and the reaction was stopped by cell lysis. Detection of phospho-STAT5 and total STAT5 protein levels in cell lysates was performed using the MSD Phospho (Tyr694)/Total STATa,b Whole Cell Lysate Kit (Meso Scale Discovery, MD)."}, "CD4, CD8, and NK cells": {"tested_on": "CD4, CD8, and NK cells", "test": "In vivo IL-15 signaling (STAT5 phosphorylation in lymphocytes) in mice", "description": "Conventional approaches, such as those involving radiolabeling a compound, administering the compound in vivo, and determining its clearance, can be used to assess whether a compound proposed to be a long-acting, IL-15 R agonist is “long-acting” (i.e., has a clearance that is longer than that of IL-15 administered in the same in vivo system). For the purposes herein, the long acting nature of a long-acting IL-15 R agonist may be, and is typically determined using flow cytometry to measure STAT5 phosphorylation in lymphocytes at various time points after administration of the agonist to be evaluated in mice. As a reference, the signal is lost by around 24 hours with IL-15, but is sustained for a period greater than that for a long-acting IL-15 agonist.\nMice were dosed as described in Example 6 above to assess in-vivo signaling as assessed by degree of STAT5 phosphorylation. Degree of STAT5 phosphorylation in various lymphocytes (CD4, CD8, and NK cells) was assessed by staining whole blood for leukocyte surface markers and pSTAT5, followed by measurement by flow cytometry. Results are shown in FIGS. 8A and 8 B for IL-15 and for Conjugate 2, respectively.\n[PK methods previously described herein].\nSTAT5 phosphorylation in CD4 T cells was determined by using a CD3+CD4+CD8-pSTAT5+ marker combination. FIG. 43 is a plot of pSTAT5 phosphorylation percent positivity within CD4 T cells over time (at 0.25, 1, 6, 24, 48, 72, 96 and 120 hours post administration) at a dose of 0.03 mg/kg (blue, solid squares) or 0.3 mg/kg (orange, solid circles). The vehicle over time (black) and pre-dose (open circles) levels are also shown."}}}
{"substance": "mono-mPEG-SBA40K-IL-15 [Conjugate 1]", "values": [{"measurement": "EC50 (ng/ml)-% pSTAT5 CD3 donor1", "setting": "human PBMCs; CD3 cells, donor1, 20 min stimulation", "result": 0.75, "unit": "ng/ml"}, {"measurement": "EC50 (ng/ml)-% pSTAT5 CD3 donor2", "setting": "human PBMCs; CD3 cells, donor2, 20 min stimulation", "result": 1.1, "unit": "ng/ml"}, {"measurement": "EC50 (ng/ml)-% pSTAT5 Treg donor1", "setting": "human PBMCs; CD4-Treg cells, donor1", "result": 0.23, "unit": "ng/ml"}, {"measurement": "EC50 (ng/ml)-% pSTAT5 Treg donor2", "setting": "human PBMCs; CD4-Treg cells, donor2", "result": 0.37, "unit": "ng/ml"}, {"measurement": "EC50 (ng/ml)-% pSTAT5 CD4 donor1", "setting": "human PBMCs; CD4 cells, donor1", "result": 0.75, "unit": "ng/ml"}, {"measurement": "EC50 (ng/ml)-% pSTAT5 CD4 donor2", "setting": "human PBMCs; CD4 cells, donor2", "result": 0.83, "unit": "ng/ml"}, {"measurement": "maximum pSTAT5 response compared with IL-15", "setting": "human PBMCs; CD8 and CD56 bright NK cells", "result": "achieves the same maximum response as conventional IL-15"}, {"measurement": "EC50 (ng/ml)-% pSTAT5 CD8 donor1", "setting": "human PBMCs; CD8 cells, donor1", "result": 0.76, "unit": "ng/ml"}, {"measurement": "EC50 (ng/ml)-% pSTAT5 CD8 donor2", "setting": "human PBMCs; CD8 cells, donor2", "result": 1.54, "unit": "ng/ml"}, {"measurement": "EC50 (ng/ml)-% pSTAT5 CD56bright donor1", "setting": "human PBMCs; CD56bright cells, donor1", "result": 1.4, "unit": "ng/ml"}, {"measurement": "EC50 (ng/ml)-% pSTAT5 CD56bright donor2", "setting": "human PBMCs; CD56bright cells, donor2", "result": 1.9, "unit": "ng/ml"}, {"measurement": "EC50 (ng/ml)-% pSTAT5 CD56dim donor1", "setting": "human PBMCs; CD56dim cells, donor1", "result": 2.9, "unit": "ng/ml"}, {"measurement": "EC50 (ng/ml)-% pSTAT5 CD56dim donor2", "setting": "human PBMCs; CD56dim cells, donor2", "result": 5.9, "unit": "ng/ml"}, {"measurement": "less potent than IL-15 in engaging CD8 cells", "setting": "human PBMCs; Example 22, % pSTAT5", "result": 5.5, "unit": "X"}, {"measurement": "less potent than IL-15 in engaging CD56 bright NK cells", "setting": "human PBMCs; Example 22, % pSTAT5", "result": 15, "unit": "X"}, {"measurement": "IL-15 signaling (STAT5 phosphorylation) in huPBMCs", "setting": "human PBMCs; NK cell subsets CD56bright, CD56dim", "result": "potently induces such signaling"}, {"measurement": "EC50 (ng/ml) pSTAT5 CD56bright NK", "setting": "human PBMCs; Table 3, CD56bright NK cells", "result": 2.4, "unit": "ng/ml"}, {"measurement": "EC50 (ng/ml)-% pSTAT5 CD3", "setting": "human PBMCs; Table 7 Summary Table, CD3", "result": 0.75, "unit": "ng/ml"}, {"measurement": "EC50 (ng/ml)-% pSTAT5 CD4", "setting": "human PBMCs; Table 7 Summary Table, CD4", "result": 0.75, "unit": "ng/ml"}, {"measurement": "EC50 (ng/ml)-% pSTAT5 CD8", "setting": "human PBMCs; Table 7 Summary Table, CD8", "result": 0.76, "unit": "ng/ml"}, {"measurement": "EC50 (ng/ml)-% pSTAT5 CD56bright", "setting": "human PBMCs; Table 7 Summary Table, CD56bright", "result": 1.4, "unit": "ng/ml"}, {"measurement": "EC50 (ng/ml)-% pSTAT5 CD56dim", "setting": "human PBMCs; Table 7 Summary Table, CD56dim", "result": 2.9, "unit": "ng/ml"}, {"measurement": "EC50 (ng/ml)-% pSTAT5 Treg", "setting": "human PBMCs; Table 7 Summary Table, Treg", "result": 0.23, "unit": "ng/ml"}, {"measurement": "IL-15 more potent than conjugate in inducing CD3, CD4, CD8 and Treg cells", "setting": "human PBMCs; Table 7 data", "result": "3-4 fold"}, {"measurement": "IL-15 more potent than conjugate in inducing CD56bright and CD56dim cells", "setting": "human PBMCs; Table 7 data", "result": "approximately 12 fold"}, {"measurement": "IL-15 more potent than conjugate, CD3 and CD4 induction", "setting": "human PBMCs; pSTAT5 EC50, CD3 and CD4", "result": "4-6 fold"}, {"measurement": "IL-15 more potent than conjugate, CD56 induction", "setting": "human PBMCs; pSTAT5 EC50, CD56", "result": "~10", "unit": "fold"}, {"measurement": "IL-15 more potent than conjugate, Treg and CD8 induction", "setting": "human PBMCs; pSTAT5 EC50, Treg and CD8", "result": "3-5 fold"}, {"measurement": "EC50 (ng/ml)-MFI CD3 donor1", "setting": "human PBMCs; pSTAT5 MFI, CD3 cells, donor1", "result": 22.1, "unit": "ng/mL"}, {"measurement": "EC50 (ng/ml)-MFI CD3 donor2", "setting": "human PBMCs; pSTAT5 MFI, CD3 cells, donor2", "result": 108.8, "unit": "ng/mL"}, {"measurement": "EC50 (ng/ml)-MFI Treg donor1", "setting": "human PBMCs; pSTAT5 MFI, CD4-Treg cells, donor1", "result": 2.5, "unit": "ng/mL"}, {"measurement": "EC50 (ng/ml)-MFI Treg donor2", "setting": "human PBMCs; pSTAT5 MFI, CD4-Treg cells, donor2", "result": 2.9, "unit": "ng/mL"}, {"measurement": "EC50 (ng/ml)-MFI CD4 donor1", "setting": "human PBMCs; pSTAT5 MFI, CD4 cells, donor1", "result": 23.54, "unit": "ng/mL"}, {"measurement": "EC50 (ng/ml)-MFI CD4 donor2", "setting": "human PBMCs; pSTAT5 MFI, CD4 cells, donor2", "result": 106.5, "unit": "ng/mL"}, {"measurement": "EC50 (ng/ml)-MFI CD8 donor1", "setting": "human PBMCs; pSTAT5 MFI, CD8 cells, donor1", "result": 16.73, "unit": "ng/mL"}, {"measurement": "EC50 (ng/ml)-MFI CD8 donor2", "setting": "human PBMCs; pSTAT5 MFI, CD8 cells, donor2", "result": 99.76, "unit": "ng/mL"}, {"measurement": "EC50 (ng/ml)-MFI CD56bright donor1", "setting": "human PBMCs; pSTAT5 MFI, CD56bright cells, donor1", "result": 7.8, "unit": "ng/mL"}, {"measurement": "EC50 (ng/ml)-MFI CD56bright donor2", "setting": "human PBMCs; pSTAT5 MFI, CD56bright cells, donor2", "result": 12.4, "unit": "ng/mL"}, {"measurement": "EC50 (ng/ml)-MFI CD56dim donor1", "setting": "human PBMCs; pSTAT5 MFI, CD56dim cells, donor1", "result": 23.25, "unit": "ng/mL"}, {"measurement": "EC50 (ng/ml)-MFI CD56dim donor2", "setting": "human PBMCs; pSTAT5 MFI, CD56dim cells, donor2", "result": 73.05, "unit": "ng/mL"}, {"measurement": "reduction in potency when compared to IL-15", "setting": "CTLL-2 cells; EC50 CTLL-2 pSTAT5", "result": "two-fold"}, {"measurement": "EC50 (ng/mL) CTLL-2 pSTAT5", "setting": "CTLL-2 cells; Table 2B", "result": 0.62, "unit": "ng/mL"}, {"measurement": "pSTAT5 expression in CD4 T cells", "setting": "CD4, CD8, and NK cells; Balb/c mice, single i.v. 0.03 or 0.3 mg/kg, compared to CD8 and NK cells", "result": "relatively less increase in pSTAT5 expression"}, {"measurement": "pSTAT5 percent positivity within NK cells", "setting": "CD4, CD8, and NK cells; balb/c mice, single injection 0.03 and 0.3 mg/kg", "result": "induces robust and sustained pSTAT5 signaling in NK cells"}, {"measurement": "pSTAT5 percent positivity within CD8 T cells", "setting": "CD4, CD8, and NK cells; balb/c mice, single injection 0.03 and 0.3 mg/kg, 120 h", "result": "induces sustained pSTAT5signaling in CD8 T cells"}]}
